Laboratory results: ChEMBL document CHEMBL1136889, “The application of the phosphoramidate ProTide approach confers micromolar potency against hepatitis C virus on inactive agent 4'-azidoinosine: kinase bypass on a dual base/sugar modified nucleoside” (Bioorg Med Chem Lett, 2009)

Assays:
Hepatitis C virus = assay: Antiviral activity against HCV 1b in human HuH7 cells assessed as renilla luciferase activity by replicon assay; type: functional, organism-based, Hepacivirus hominis; conditions: genotype 1b, Huh-7
[1] = Cytotoxicity against human HuH7 cells assessed as [3H]thymidine incorporation; type: cell-based, Huh-7

Row | SMILES | EC50 (Hepatitis C virus) | CC50 [1]
1 | CCOC(=O)[C@H](C)NP(=O)(OC[C@@]1(N=[N+]=[N-])O[C@@H](n2cnc3c(=O)[nH]cnc32)[C@H](O)[C@@H]1O)Oc1cccc2ccccc12 (stereo partly drawn) | 16.4 µM | > 100 µM
2 | C[C@H](NP(=O)(OC[C@@]1(N=[N+]=[N-])O[C@@H](n2cnc3c(=O)[nH]cnc32)[C@H](O)[C@@H]1O)Oc1cccc2ccccc12)C(=O)OC(C)(C)C (stereo partly drawn) | > 100 µM | > 100 µM
3 | C[C@H](NP(=O)(OC[C@@]1(N=[N+]=[N-])O[C@@H](n2cnc3c(=O)[nH]cnc32)[C@H](O)[C@@H]1O)Oc1cccc2ccccc12)C(=O)OCc1ccccc1 (stereo partly drawn) | 4.3 µM | > 100 µM
4 | C[C@H](NP(=O)(OC[C@@]1(N=[N+]=[N-])O[C@@H](n2cnc3c(=O)[nH]cnc32)[C@H](O)[C@@H]1O)Oc1ccccc1)C(=O)OCc1ccccc1 (stereo partly drawn) | > 100 µM | > 100 µM
5 | [N-]=[N+]=N[C@]1(CO)O[C@@H](n2cnc3c(=O)[nH]cnc32)[C@H](O)[C@@H]1O | > 100 µM | > 100 µM

The next lines start with results.

Row | EC50 (Hepatitis C virus) | SMILES | CC50 [1]
6 | > 100 µM | CCOC(=O)[C@H](C)NP(=O)(OC[C@@]1(N=[N+]=[N-])O[C@@H](n2cnc3c(=O)[nH]cnc32)[C@H](O)[C@@H]1O)Oc1ccccc1 (stereo partly drawn) | > 100 µM
7 | > 100 µM | CC(C)OC(=O)[C@H](C)NP(=O)(OC[C@@]1(N=[N+]=[N-])O[C@@H](n2cnc3c(=O)[nH]cnc32)[C@H](O)[C@@H]1O)Oc1ccccc1 (stereo partly drawn) | > 100 µM
8 | 6.1 µM | CC(C)OC(=O)[C@H](C)NP(=O)(OC[C@@]1(N=[N+]=[N-])O[C@@H](n2cnc3c(=O)[nH]cnc32)[C@H](O)[C@@H]1O)Oc1cccc2ccccc12 (stereo partly drawn) | > 100 µM
9 | > 100 µM | C[C@H](NP(=O)(OC[C@@]1(N=[N+]=[N-])O[C@@H](n2cnc3c(=O)[nH]cnc32)[C@H](O)[C@@H]1O)Oc1ccccc1)C(=O)OC(C)(C)C (stereo partly drawn) | > 100 µM
